From patent US9107879B1, “Methods of increasing the cytotoxicity of chemotherapeutic agents with multisubstrate inhibitors of histone, protein-lys, polyamine acetylation, and polyamine metabolism” (Vanderbilt University, priority 2010, dated 2015)

Experiments:
[1] = test system: endogenous HATs associated with solubilized chromatin; conditions: literature (Bandyopadhyay et al 2009; Parello et al. 1990); cited from earlier work
H358 lung cancer cells = assay: [3H]-thymidine incorporation DNA synthesis assay; assay type: cell-based; conditions: data not shown
Description: (A) Structures of 1a, and the acetylated side chain of a lysine residue within the polypeptide chain of a protein targeted by the acetylating enzyme (R1 and R2 are the main chain elements on both sides of the lysyl residue). (B) [^3H]-thymidine incorporation into DNA of H358 cells pulsed for 6 hrs at three different time points after the addition of increasing concentrations of 1a, i.e., at 6-12 hrs (12 hr curve), at 18-24 hours (24 hr curve), or at 42-48 hrs (48 hr curve). Incorporation is represented as a percentage relative to control (untreated) cells. (C) Cell cycle analysis of propidium iodide-stained cells harvested at various times after addition of 50 μM 1a. % of cells in G1, S, and G2 represents the average of two independent profiles. (D) Western analysis of histone H3 lysine 9 acetylation, histone H3 lysine 56 acetylation, histone H3 lysine 9 methylation, and total histone H3, before “c” or at the indicated times after addition of 50 μM 1a. Each lane represents 60 μg cellular protein.
Control cells were left untreated. […] Control cells were left untreated.
Cells were either labeled immediately before treatment (starting DNA synthesis rate), or subjected to the indicated treatments and then pulsed on successive days until day 4. DNA synthesis is represented as the percent of starting DNA synthesis rate. Viability was determined for each treatment condition 24 hours post-start of treatment by the trypan blue exclusion assay, with percentages of viable cells indicated to the right of the graph.
H358 cells (2,000/well) in 96-well plates were treated with 1, 10 or 50 μM of spd-1a, spd-2a, spd-3a, spm3, or spm2 for 12 hours. Triplicate wells of cells were pulsed 6 hours with 0.5 μCi [^3H]-thymidine (NEN, Boston Mass.) post-start of drug treatment, and harvested onto filter paper using a Brandel Harvester and subjected to scintillation counting. Untreated cells were pulsed 0-6 hrs to establish the initial rate of incorporation.
Cells were plated in 96-well plates (2000 cells per well to insure conditions for exponential growth for untreated cells over the time course of the experiment) and exposed to the following treatments: 1a (50 μM); camptothecin (Sigma, St Louis, Mo. 5 nM, 18 hours); cisplatin (Platinol, obtained through local pharmacies, 2 μM, 1 hour 15 minutes), 5-fluorouracil (5FU, Adrucil™, obtained through local pharmacies, 2 μM, 1 hour 15 minutes), Taxotere (provided by the late Dr. Pierre Potier, 5 nM, 18 hours). UVC treatment (40 J/m^2) using a Stratalinker™, Stratagene, La Jolla, Calif.) was carried using medium lacking phenol red. At 0-6 hr, 18-24 hr (day 1), 42-48 hr […], 66-72 hr (day 3), and 90-96 hr (day 4) post-start of treatment, triplicate wells were incubated with 0.5 μCi [^3H]-thymidine (NEN, Boston Mass.), harvested onto filter paper, and subjected to scintillation counting. Trypan blue exclusion assays for cell membrane integrity were carried out as known in the art.
The present inventors used [^3H]-thymidine incorporation assays to examine DNA synthesis in H358 lung cancer cells in the presence of varying concentrations of 1a. Cells were pulsed for 6 hours with [^3H]-thymidine at three different time points after the addition of 1a (i.e., at 6-12 hours, at 18-24 hours, and at 42-48 hours). The incorporation of [^3H]-thymidine into DNA decreased with increasing concentrations of 1a at all three time points, with the maximal effect occurring with the 6-12 hour pulse (FIG. 2B).
We then used [^3H]-thymidine incorporation assays to examine DNA synthesis in H358 lung cancer cells in the presence of 1a alone, or together with an 18 hour exposure to the DNA damaging drug, camptothecin (CPT), a plant alkaloid from which an important class of topoisomerase I-targeted chemotherapeutic agents (Hycamtin [topotecan] and Camptosar [irinotecan]) has been derived (Garcia-Carbonero, et al, 2002, Clin Cancer Res 8: 641-61). […]

MCF7 breast cancer cells = conditions: single agent; DFMO 100 μM, 5FU 2 μM 18 hrs, doxorubicin 100 nM 18 hr; spd-2a with no siRNA or control siRNA
Description: (A) [^3H]-thymidine incorporation into DNA of H358 cells (left panel) or MCF-7 cells (right panel) during a 6 hour pulse ending at the indicated time points after initiation of treatment. Treatments were 50 μM 1a alone, 5 nM camptothecin alone (CPT, 18 hours), 50 μM 1a+5 nm CPT (18 hours). Control cells were left untreated. (B) 2-day 96-well viability assays of H358 cells (left panel) or MCF-7 cells (right panel) grown in presence of increasing concentrations of 1a (continuous), with or without an 18-hour treatment with 5 nM camptothecin (CPT). Cell viability, represented as a percent of untreated cell viability (i.e., no 1a, no CPT), was determined 2 days post-start of treatment by the MTS bioconversion assay (MTS=(3-(4,5′-dimethylthiazol-2-yl)-5-(3-carboxymethoxylphenyl-2-(4-sulfophenyl)-2H-tetrazolium salt). Each data point represents the average of triplicate wells. Assays were carried out under conditions such that untreated cells remained in exponential growth. (C) [^3H]-thymidine incorporation into DNA of H358 cells carried out as in part “A”. Treatment consisted of 1a alone (50 μM), or cisplatin (2 μM, 1 hour, 15 minutes) alone or together with 1a (Panel 1); or UVC (40 J/m^2), alone or together with 1a (Panel 2); or 5-fluorouracil (5FU, 2 μM, 18 hours) alone or together with 1a (Panel 3), or Taxotere™ (5 nM, 18 hours), alone or together with 1a (Panel 4). Control cells were left untreated. Symbols are as follows: (-◯-) untreated control; (-●-) 50 μM 1a, (-∇-) drug or UVC alone; (-▾-) combination 1a+drug or UVC.
Viability was measured 3 days after the start of treatment and is expressed as a percentage of control (untreated) cell viability.
Each point is average of triplicates.
Date of exp: 7-17-2010; located p.21 in Hat notebook: KB-2 (2010-2011).
Cells were plated in 96-well plates (3000 cells per well) and incubated 18 hours with or without 5 nM camptothecin (Sigma, St Louis, Mo.). Triplicate wells were then treated with varying doses of 1a (from 0-50 μM). Control cells received neither 1a nor camptothecin. 2-day viability was determined by the MTS assay as previously (Saadatmandi et al., 2002, Cancer Gene Therapy, 9: 830-9) and expressed as a percentage of control cell viability.
The present inventors carried out 96-well viability assays as we have previously described (Saadatmandi et al, Cancer Gene Therapy (2002) 9:830-9), in which MCF7 breast cancer cells were plated at 3000 cells per well. After overnight attachment, triplicate wells were treated with increasing doses of inhibitor 1a. Control wells were left untreated. After 3 days, cell viability was measured by the MTS assay, which measures the bioconversion of an uncolored substrate to a colored formazan derivative, and is proportional to cell number. […]

[2] = test system: MDA MB-435 breast cancer cells; assay: 72 hr viability assay; assay type: cell-based; conditions: DFMO 100 μM, 5FU 2 μM 18 hrs, doxorubicin 100 nM 18 hr
γ-H2A.X in H358 cells = assay: double strand break / gamma-H2A.X Western and co-immunoprecipitation; assay type: cell-based; conditions: 18 hours post-start; 1a 50 μM, 5FU 2 μM, cisplatin 2 μM, camptothecin 5 nM
Description: Also shown are controls for no treatment (“c” minus 1a) or treatment with 1a only (“c” plus 1a). Each lane represents 60 μg protein. […] Each lane represents 60 μg protein.
To measure DSB repair, cells were incubated for 1 hour with 10 μM camptothecin to induce DSBs, followed by incubation in the presence or absence of 50 μM 1a. At fixed times, histones were prepared by extraction in 0.2M H2SO4 as described previously and 50 μg extract was analyzed by 12% SDS-PAGE followed Western analysis as described previously, using rabbit polyclonal anti-γ-H2A.X [phosphor ser 139] (Novus Biologicals, Littleton, Colo.) or anti-H3 (Upstate Biotechnology, Inc, Lake Placid, N.Y.). Band intensities were quantitated digitally. To study acetylation of γ-H2A.X, we carried out co-immunoprecipitation analysis using 50 μg extract protein in immunoprecipitation buffer (10 mM sodium phosphate pH 7, 0.15 M NaCl, 0.1% SDS, 1% NP40, 1% sodium deoxycholate, aprotinin, 1 mM PMSF, complete protease inhibitors (Roche) using immobilized anti-acetyl-lysine (Millipore, Temecula, Calif.) in the immunoprecipitation step. The immunoprecipitated material was then analyzed as for Western analysis using anti γ-H2A.X.
Double strand breaks (DSBs) can be formed by a variety of DNA damaging agents, including camptothecin, cisplatin, 5FU, and UVC radiation (Avemann K, et al., 1988, Mol Cell Biol, 8: 3026-34; Bogdanov K V, et al. 1997, Br J Haematol, 98:869-72; Pavon M A, et al., Int J Cancer, 2008, 123:1068-79) implying that DSB repair may play a role in reducing their cellular toxicity. To examine how 1a treatment affects DSB repair in H358 cells we made use of the fact that the histone variant, H2A.X becomes phosphorylated at sites of double strand breaks (denoted γ-H2A.X), and can be detected by immunoblot analysis of acid extracted cells (Rogaku E P, et al., 1999, J Cell Biol, 146:905-16). […] Total H3 levels and H2A.X levels (control) are unaffected by these treatments (FIG. 4B). […]

DLD-1 colon cancer = assay: subcutaneous DLD-1 tumor model in nude mice; assay type: in vivo, nude mouse; conditions: DFMO alone, intratumoral, 2 mg/kg
Description: Tumors were initiated By subcutaneous implantation of […] DLD-1 colon cancer cells. […] Tumors were measured and volumes calculated as in FIG. 14.
Tumors were initiated by injecting 10^6 DLD-1 cells (from ATCC) per mouse (female nude mouse, 4-5 weeks, Harlan Labs) subcutaneously in the flank. (A) When the average tumor size reached 26 mm^3, animals were randomized into 2 groups (3 per group). One group was left untreated and served as the control (-●-). […] Tumors were measured bidirectionally at 2-3 day intervals and tumor volumes were calculated (v=½L×w^2). A paired t-test was used to evaluate the significance of the differences between the two groups of animals. […] (B) Tumors were initiated as in part (A). When tumors reached an average size of about 30 mm^3, animals were randomized into three groups of 2 animals each. The control group (-●-) received no treatment. The DFMO group (-▪-) received intratumoral injections of DFMO (2 mg/kg) on days 1, 7, 9 (5 PM), and 2, 8, 10 (9 AM, 5 PM). […] Tumors were measured and volumes calculated as in part (A). A paired t-test was used to evaluate the significance of the difference between the curves.

SMILES	inhibitory activity against endogenous HAT [1]	inhibitory activity against DNA synthesis in vivo, isomers compared (H358 lung cancer cells)	3-day / 72 hr cell viability, single agent (MCF7 breast cancer cells)	72 hr cell viability, single agent [2]	γ-H2A.X level, single agent (γ-H2A.X in H358 cells)	tumor volume difference versus control (DLD-1 colon cancer)
CC(C)(COP(=O)(O)OP(=O)(O)OC[C@H]1O[C@@H](n2cnc3c(N)ncnc32)[C@H](O)[C@@H]1OP(=O)(O)O)[C@@H](O)C(=O)NCCC(=O)NCCSCC(=O)NCCCCNCCCN [1b, spermidine [N8]-CoA]	comparable inhibitory activity	comparable inhibitory activity				
O=c1[nH]cc(F)c(=O)[nH]1 [5FU, 5-Fluorouracil]			minimal effects	minimal effects	weakly detectable	
NCCC[C@](N)(C(=O)O)C(F)F [DFMO, α-difluoromethylornithine]			ineffective	ineffective		not significant
N.N.[Cl][Pt][Cl] [cisplatin, cis-diamminedichloro-platinium]					weakly detectable	
COc1cccc2c1C(=O)c1c(O)c3c(c(O)c1C2=O)C[C@@](O)(C(=O)CO)C[C@@H]3O[C@H]1C[C@H](N)[C@H](O)[C@H](C)O1 [doxorubicin]			minimal effects	minimal effects		
